Measured values published in the supplement of paper PMC11061612.

Assays:
Assay in all cases: combination Emax (second highest fraction inhibited in the dose matrix, 72 h); higher = more inhibition; extreme values may be limits of the assay
[1] = system: ES8 (Ewing's Sarcoma)
Outline: (§1)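 Bliss excess equals the observed combination effect minus the expected value EA + EB − EA·EB, where EA and EB are the effects of each agent alone. Combination Emax is the second-highest inhibition within the matrix. Inhibition was scaled from CellTiter-Glo 2.0 luminescence, with 0 set by vehicle wells and 1 by blank wells, after 72 hours of two-drug dosing of cells plated in 1536-well plates.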

[2] = system: WM-115 (Melanoma)
Outline: as §1

[3] = system: NCI-H1792 (Lung Adenocarcinoma)
Outline: as §1

[4] = system: GR-ST (B-Lymphoblastic Leukemia)
Outline: as §1

[5] = system: KM12 (Colorectal Carcinoma)
Outline: as §1

[6] = system: HDQ-P1 (Breast Carcinoma)
Outline: as §1

[7] = system: DND-41 (T-Lymphoblastic Leukemia)
Outline: as §1

[8] = system: MFM-223 (Breast Carcinoma)
Outline: as §1

[9] = system: NCI-H847 (Small Cell Lung Carcinoma)
Outline: as §1

[10] = system: LN-18 (Glioblastoma)
Outline: as §1

[11] = system: TC-71 (Ewing's Sarcoma)
Outline: as §1

[12] = system: DiFi (Colorectal Carcinoma)
Outline: as §1

[13] = system: ES1 (Ewing's Sarcoma)
Outline: as §1

[14] = system: BL-41 (Burkitt's Lymphoma)
Outline: as §1

[15] = system: SR (Other Blood Carcinomas)
Outline: as §1

[16] = system: MOLT-16 (T-Lymphoblastic Leukemia)
Outline: as §1

[17] = system: COLO-678 (Colorectal Carcinoma)
Outline: as §1

[18] = system: KCL-22 (Chronic Myelogenous Leukemia)
Outline: as §1

[19] = system: P12-ICHIKAWA (T-Lymphoblastic Leukemia)
Outline: as §1

[20] = system: NCI-H2818 (Mesothelioma)
Outline: as §1

Row | SMILES | combination Emax [1] | combination Emax [2] | combination Emax [3] | combination Emax [4] | combination Emax [5] | combination Emax [6] | combination Emax [7] | combination Emax [8] | combination Emax [9] | combination Emax [10] | combination Emax [11] | combination Emax [12] | combination Emax [13] | combination Emax [14] | combination Emax [15] | combination Emax [16] | combination Emax [17] | combination Emax [18] | combination Emax [19] | combination Emax [20]
1 | CN(C)CCCOc1ccc(-c2ccc3ncc4c(c3c2)n(C2CCOCC2)c(=O)n4C)cn1 [AZD0156] + O=C(c1cc(Cc2n[nH]c(=O)c3ccccc23)ccc1F)N1CCN(C(=O)C2CC2)CC1 [Olaparib] (first compound max 3 µM, partner max 3 µM) | 0.877 | 0.356 | 0.267 | 0.6 | 0.36 | 0.371 | 0.372 | 0.179 | 0.64 | 0.203 | 0.804 | 0.223 | 0.834 | 0.366 | 0.675 | 0.914 | 0.216 | 0.457 | 0.611 | 0.38
2 | C=CCn1c(=O)c2cnc(Nc3ccc(N4CCN(C)CC4)cc3)nc2n1-c1cccc(C(C)(C)O)n1 [AZD1775] + C1CN(CCC1(C(=O)N[C@@H](CCO)C2=CC=C(C=C2)Cl)N)C3=NC=NC4=C3C=CN4 [Capivasertib] (first compound max 3 µM, partner max 3 µM) | 0.943 | 0.536 | 0.808 | 0.818 | 0.872 | 0.856 | 0.899 | 0.711 | 1 | 0.581 | 0.92 | 0.643 | 0.797 | 0.993 | 0.999 | 1 | 0.51 | 0.962 | 1 | 0.493
3 | CN(CCO)CC[C@H](CSc1ccccc1)Nc1ccc(S(=O)(=O)NC(=O)c2ccc(N3CCC([C@@H](O)c4ccccc4-c4ccc(Cl)cc4)CC3)cc2)cc1S(=O)(=O)C(F)(F)F [AZD4320] + C1CN(CCC1(C(=O)N[C@@H](CCO)C2=CC=C(C=C2)Cl)N)C3=NC=NC4=C3C=CN4 [Capivasertib] (first compound max 1 µM, 7x7, partner max 3 µM) | 0.493 | 0.829 | 0.0895 | 0.402 | 0.565 | 0.584 | 1 | 0.741 | 1 | 0.298 | 0.544 | 0.804 | 0.246 | 0.215 | 0.49 | 1 | 0.0393 | 0.35 | 1 | 0.184
4 | CN(CCO)CC[C@H](CSc1ccccc1)Nc1ccc(S(=O)(=O)NC(=O)c2ccc(N3CCC([C@@H](O)c4ccccc4-c4ccc(Cl)cc4)CC3)cc2)cc1S(=O)(=O)C(F)(F)F [AZD4320] + C=CCn1c(=O)c2cnc(Nc3ccc(N4CCN(C)CC4)cc3)nc2n1-c1cccc(C(C)(C)O)n1 [AZD1775] (first compound max 1 µM, partner max 1 µM) | 0.962 | 0.507 | 0.696 | 0.765 | 0.881 | 0.911 | 1 | 0.383 | 1 | 0.537 | 0.926 | 0.944 | 0.827 | 1 | 1 | 1 | 0.367 | 0.937 | 1 | 0.371
5 | CN(CCO)CC[C@H](CSc1ccccc1)Nc1ccc(S(=O)(=O)NC(=O)c2ccc(N3CCC([C@@H](O)c4ccccc4-c4ccc(Cl)cc4)CC3)cc2)cc1S(=O)(=O)C(F)(F)F [AZD4320] + CCN(CCO)CCCOc1ccc2c(Nc3cc(CC(=O)Nc4cccc(F)c4)[nH]n3)ncnc2c1 [AZD2811] (first compound max 1 µM, 7x7, partner max 1 µM) | 1 | 0.453 | 0.113 | 0.151 | 0.173 | 0.849 | 1 | 0.693 | 1 | 0.584 | – | 0.882 | 0.613 | 0.723 | 0.938 | 1 | 0.456 | 0.556 | 1 | 0.191
6 | CN(CCO)CC[C@H](CSc1ccccc1)Nc1ccc(S(=O)(=O)NC(=O)c2ccc(N3CCC([C@@H](O)c4ccccc4-c4ccc(Cl)cc4)CC3)cc2)cc1S(=O)(=O)C(F)(F)F [AZD4320] + CN(C)CCCOc1ccc(-c2ccc3ncc4c(c3c2)n(C2CCOCC2)c(=O)n4C)cn1 [AZD0156] (first compound max 1 µM, 7x7, partner max 1 µM) | 0.64 | 0.363 | 0.12 | 0.175 | 0.186 | 0.465 | 1 | 0.199 | 1 | 0.222 | 0.659 | 0.608 | 0.226 | 0.277 | 0.252 | 0.989 | 0.0581 | 0.361 | 1 | 0.268
7 | CN(CCO)CC[C@H](CSc1ccccc1)Nc1ccc(S(=O)(=O)NC(=O)c2ccc(N3CCC([C@@H](O)c4ccccc4-c4ccc(Cl)cc4)CC3)cc2)cc1S(=O)(=O)C(F)(F)F [AZD4320] + C[C@@H](Nc1cc(F)cc(F)c1)c1cc(C(=O)N(C)C)cc2c(=O)cc(N3CCOCC3)oc12 [AZD8186] (first compound max 1 µM, 7x7, partner max 3 µM) | 0.99 | 0.914 | 0.323 | 0.537 | 0.315 | 0.787 | 1 | – | 1 | 0.555 | 1 | 0.961 | 0.725 | 0.745 | 0.713 | 1 | 0.344 | 0.33 | 1 | 0.365
8 | CN(CCO)CC[C@H](CSc1ccccc1)Nc1ccc(S(=O)(=O)NC(=O)c2ccc(N3CCC([C@@H](O)c4ccccc4-c4ccc(Cl)cc4)CC3)cc2)cc1S(=O)(=O)C(F)(F)F [AZD4320] + Cn1cnc2c(F)c(Nc3ccc(Br)cc3Cl)c(C(=O)NOCCO)cc21 [Selumetinib] (first compound max 1 µM, 7x7, partner max 3 µM) | 0.99 | 0.878 | 0.369 | 0.494 | 0.579 | 0.771 | 1 | – | 1 | 0.329 | 0.985 | 0.951 | 0.786 | 0.801 | 0.731 | 1 | 0.604 | 0.557 | 1 | 0.31
9 | Cc1c2c(nn1C)CSCc1cc(n(C)n1)CSc1cc(c3ccccc3c1)OCCCc1c(C(=O)O)n(C)c3c-2c(Cl)ccc13 [AZD5991] + C=CCn1c(=O)c2cnc(Nc3ccc(N4CCN(C)CC4)cc3)nc2n1-c1cccc(C(C)(C)O)n1 [AZD1775] (first compound max 1 µM, partner max 1 µM) | 0.717 | 0.34 | 0.708 | 0.791 | 0.875 | 0.579 | 0.875 | 0.562 | 1 | 0.602 | 0.578 | 0.856 | – | 1 | 0.923 | 1 | 0.391 | 0.969 | 1 | 0.519
10 | COc1cccc(OCCCN)c1-c1cc(Nc2cnc(C#N)cn2)n[nH]1 [Prexasertib] + O=C(c1cc(Cc2n[nH]c(=O)c3ccccc23)ccc1F)N1CCN(C(=O)C2CC2)CC1 [Olaparib] (first compound max 1 µM, 7x7, partner max 10 µM) | 0.906 | 0.556 | 0.84 | 0.808 | 0.756 | 0.702 | 0.85 | 0.703 | 1 | 0.807 | 0.987 | 0.924 | 1 | 1 | 0.996 | 1 | 0.169 | 0.953 | – | 0.285
11 | COc1cc2c(cc1OCCCCCOc1cc3c(cc1OC)C(=O)N1C=C(C)C[C@H]1C=N3)N=C[C@@H]1CC(C)=CN1C2=O [SG3199] + O=C(c1cc(Cc2n[nH]c(=O)c3ccccc23)ccc1F)N1CCN(C(=O)C2CC2)CC1 [Olaparib] (first compound max 0.001 µM, 7x7, partner max 10 µM) | 0.828 | 0.206 | 0.144 | 0.359 | 0.113 | 0.153 | 0.216 | 0.128 | 0.509 | 0.132 | 0.518 | 0.107 | 0.689 | 0.107 | 0.445 | 0.659 | 0.13 | 0.176 | – | 0.161
12 | CCc1c2c(nc3ccc(O)cc13)-c1cc3c(c(=O)n1C2)COC(=O)[C@]3(O)CC [SN-38] + CN(C)CCCOc1ccc(-c2ccc3ncc4c(c3c2)n(C2CCOCC2)c(=O)n4C)cn1 [AZD0156] (first compound max 0.3 µM, 7x7, partner max 1 µM) | 0.984 | 0.43 | 0.757 | 0.749 | 0.716 | 0.702 | 0.934 | 0.243 | 0.976 | 0.617 | 1 | 0.669 | 1 | 1 | 0.994 | 1 | 0.268 | 0.921 | – | 0.499
